From US20050197350A1, “Novel quinoline, tetrahydroquinazoline, and pyrimidine derivatives and methods of treatment related to the use thereof” (TAISHO PHARMACEUTICAL CO., LTD., priority 2003, published 2005) come the findings set out here.

The test relates to MCH receptors. Description: MCH receptor activity class (method not given). The following applies: class by percent of control at 10^−7 M or IC50.

In the case of `Cc1ccc(C(=O)N[C@H]2CC[C@@H](CNc3ncc(C)c(N(C)C)n3)CC2)cc1` [compound 2713], the class is listed as 3 (Class 3 The value of percent of control at 10^−7 M was more than 60% or the value of IC50 was more than 200 nM.).
As for `Cc1cnc(NC[C@H]2CC[C@@H](NC(=O)c3ccc(F)c(F)c3)CC2)nc1N(C)C` [compound 2714], the class is 3 (Class 3 The value of percent of control at 10^−7 M was more than 60% or the value of IC50 was more than 200 nM.).
In the case of `COc1ccc(C(=O)N[C@H]2CC[C@@H](CNc3ncc(C)c(N(C)C)n3)CC2)cc1` [compound 2715], the class is on record as 3 (Class 3 The value of percent of control at 10^−7 M was more than 60% or the value of IC50 was more than 200 nM.).
On to `COc1cc(OC)cc(C(=O)N[C@H]2CC[C@@H](CNc3ncc(C)c(N(C)C)n3)CC2)c1` [compound 2716, N-[cis-4-({[4-(dimethylamino)-5-methylpyrimidin-2-yl]amino}methyl)cyclohexyl]-3,5-dimethoxybenzamide], for which the class is recorded as 2 (Class 2: The value of percent of control at 10^−7 M was from 40% to 60% or the value of IC′50 was from 50 nM to 200 nM.).
Under `Cc1ccc(C(=O)N[C@H]2CC[C@@H](CNc3ncc(C)c(N(C)C)n3)CC2)cc1F` [compound 2717] stands 3 (Class 3 The value of percent of control at 10^−7 M was more than 60% or the value of IC50 was more than 200 nM.).
For the compound `Cc1cc(C(=O)N[C@H]2CC[C@@H](CNc3ncc(C)c(N(C)C)n3)CC2)ccc1F` [compound 2718], the class is reported as 2 (Class 2: The value of percent of control at 10^−7 M was from 40% to 60% or the value of IC′50 was from 50 nM to 200 nM.).
For the compound `Cc1cnc(NC[C@H]2CC[C@@H](NC(=O)c3cccc(C(F)(F)F)c3)CC2)nc1N(C)C` [compound 2719], the class is on record as 3 (Class 3 The value of percent of control at 10^−7 M was more than 60% or the value of IC50 was more than 200 nM.).
In the case of `Cc1cnc(NC[C@H]2CC[C@@H](NC(=O)c3ccc(C(F)(F)F)cc3)CC2)nc1N(C)C` [compound 2720], the class is 3 (Class 3 The value of percent of control at 10^−7 M was more than 60% or the value of IC50 was more than 200 nM.).
As for `Cc1cnc(NC[C@H]2CC[C@@H](NC(=O)c3cccc(OC(F)(F)F)c3)CC2)nc1N(C)C` [compound 2721], the class is given as 3 (Class 3 The value of percent of control at 10^−7 M was more than 60% or the value of IC50 was more than 200 nM.).
For `Cc1cnc(NC[C@H]2CC[C@@H](NC(=O)c3ccc(OC(F)(F)F)cc3)CC2)nc1N(C)C` [compound 2722], the class is given as 3 (Class 3 The value of percent of control at 10^−7 M was more than 60% or the value of IC50 was more than 200 nM.).
For `Cc1cnc(NC[C@H]2CC[C@@H](NC(=O)c3ccc(C#N)cc3)CC2)nc1N(C)C` [compound 2723], the class is on record as 3 (Class 3 The value of percent of control at 10^−7 M was more than 60% or the value of IC50 was more than 200 nM.).
Take `Cc1cnc(NC[C@H]2CC[C@@H](NC(=O)c3ccc(Br)cc3)CC2)nc1N(C)C` [compound 2724, 4-bromo-N-[cis-4-({[4-(dimethylamino)-5-methylpyrimidin-2-yl]amino}methyl)cyclohexyl]benzamide]: the class is on record as 3 (Class 3 The value of percent of control at 10^−7 M was more than 60% or the value of IC50 was more than 200 nM.).
Turning to `Cc1cc(C(=O)N[C@H]2CC[C@@H](CNc3ncc(C)c(N(C)C)n3)CC2)ccc1Br` [compound 2725, 4-bromo-N-[cis-4-({[4-(dimethylamino)-5-methylpyrimidin-2-yl]amino}methyl)cyclohexyl]-3-methylbenzamide], the class was 2 (Class 2: The value of percent of control at 10^−7 M was from 40% to 60% or the value of IC′50 was from 50 nM to 200 nM.).
As for `Cc1cnc(NC[C@H]2CC[C@@H](NC(=O)c3ccc(F)c(Cl)c3)CC2)nc1N(C)C` [compound 2726], the figure is 2 (Class 2: The value of percent of control at 10^−7 M was from 40% to 60% or the value of IC′50 was from 50 nM to 200 nM.).
